Results from the supplement of paper PMC11150407.

Assays:
Assay in all cases: cell viability relative to vehicle (fraction); higher = less inhibition
Details in all cases: 72 h
PR#007 = tested on: PR#007
Protocol: (§1)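 Primary 3q26 AML patient cells were treated for 72 h with AR-42, belinostat or entinostat (0.01-2 uM, 2-fold dilutions), in duplicate. Viability was measured by ATP-based luminescence and normalised to vehicle, given as a fraction.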

PR#004 = tested on: PR#004
Protocol: as §1

PR#006 = tested on: PR#006
Protocol: as §1

PR#003 = tested on: PR#003
Protocol: as §1

PR#0024 = tested on: PR#0024
Protocol: as §1

PR#008 = tested on: PR#008
Protocol: as §1

PR#002 = tested on: PR#002
Protocol: as §1

PR#0023 = tested on: PR#0023
Protocol: as §1

PR#005 = tested on: PR#005
Protocol: as §1

CC(C)[C@H](C(=O)Nc1ccc(C(=O)NO)cc1)c1ccccc1 [AR-42]
cell viability
Details | PR#002 | PR#003 | PR#004 | PR#005 | PR#006 | PR#007 | PR#008 | PR#0023 | PR#0024
0.016 µM | 1 | 1.01 | 0.809 | 0.962 | 0.936 | 0.988 | 0.553 | 0.955 | 0.953
0.031 µM | 0.938 | 0.853 | 0.646 | 0.977 | 0.904 | 1.0115 | 0.434 | 0.984 | 0.81
0.0625 µM | 0.855 | 0.797 | 0.417 | 0.833 | 0.902 | 1.01 | 0.3 | 0.675 | 0.67
0.125 µM | 0.792 | 0.503 | 0.248 | 0.991 | 0.552 | 0.872 | 0.199 | 0.785 | 0.4575
0.25 µM | 0.508 | 0.247 | 0.132 | 0.928 | 0.367 | 0.748 | 0.0865 | 0.441 | 0.259
0.5 µM | 0.124 | 0.0952 | 0.0759 | 0.239 | 0.104 | 0.443 | 0.0168 | 0.4779 | 0.127
1 µM | 0.0233 | 0.0399 | 0.0688 | 0.0777 | 0.0486 | 0.155 | 0.0142 | 0.116 | 0.0553
2 µM | 0.01971 | 0.0313 | 0.0591 | 0.0322 | 0.0395 | 0.0706 | 0.016 | 0.0583 | 0.0347

O=C(/C=C/c1cccc(S(=O)(=O)Nc2ccccc2)c1)NO [Belinostat]
cell viability
Details | PR#002 | PR#003 | PR#004 | PR#005 | PR#006 | PR#007 | PR#008 | PR#0023 | PR#0024
0.016 µM | 1.22 | 1.12 | 0.978 | 0.798 | 1.048 | 0.981 | 0.643 | 0.933 | 0.97
0.031 µM | 1.08 | 1.12 | 0.967 | 0.698 | 0.987 | 0.961 | 0.642 | 0.917 | 0.882
0.0625 µM | 1.01 | 0.9713 | 0.7834 | 0.979 | 0.941 | 0.897 | 0.468 | 0.893 | 0.77
0.125 µM | 1.01 | 0.874 | 0.577 | 0.871 | 0.729 | 0.854 | 0.391 | 0.8339 | 0.609
0.25 µM | 0.902 | 0.562 | 0.326 | 0.524 | 0.481 | 0.717 | 0.247 | 0.777 | 0.363
0.5 µM | 0.492 | 0.3 | 0.125 | 0.404 | 0.177 | 0.4339 | 0.0828 | 0.611 | 0.184
1 µM | 0.114 | 0.0978 | 0.0685 | 0.108 | 0.0585 | 0.173 | 0.0197 | 0.325 | 0.0781
2 µM | 0.0243 | 0.0452 | 0.0602 | 0.0361 | 0.035 | 0.0759 | 0.0115 | 0.0655 | 0.0477

Nc1ccccc1NC(=O)c1ccc(CNC(=O)OCc2cccnc2)cc1 [Entinostat]
cell viability
Details | PR#002 | PR#003 | PR#004 | PR#005 | PR#006 | PR#007 | PR#008 | PR#0023 | PR#0024
0.016 µM | 1.02 | 0.949 | 0.78 | 1.04 | 0.961 | 0.934 | 0.764 | 0.932 | 1.08
0.031 µM | 0.94 | 1 | 0.673 | 0.625 | 0.813 | 0.903 | 0.691 | 0.923 | 1.02
0.0625 µM | 0.869 | 0.91 | 0.472 | 0.534 | 0.731 | 0.938 | 0.49 | 0.806 | 0.924
0.125 µM | 0.736 | 0.735 | 0.298 | 0.437 | 0.555 | 0.918 | 0.303 | 0.7626 | 0.827
0.25 µM | 0.593 | 0.536 | 0.183 | 0.475 | 0.434 | 0.778 | 0.186 | 0.6886 | 0.682
0.5 µM | 0.396 | 0.281 | 0.1099 | 0.203 | 0.2018 | 0.666 | 0.0771 | 0.589 | 0.516
1 µM | 0.0907 | 0.115 | 0.0717 | 0.06904 | 0.115 | 0.345 | 0.0229 | 0.423 | 0.285
2 µM | 0.0309 | 0.0591 | 0.0662 | 0.0415 | 0.065 | 0.168 | 0.00956 | 0.183 | 0.14
